The values below come from US12589107B2, “Composition containing nicotinamide mononucleotide and mogroside, and application thereof” (Beijing Hebabiz Biotechnology Co., Inc., priority 2019, dated 2026).

The test system of experiment [1] is alloxan-damaged RINm5f cells. Kind of experiment: MTT cell viability assay, protection against alloxan-induced islet β-cell damage (with Calcusyn combination index). Type of experiment: cell-based, rat. The settings on record: for combination index CI value with alloxan: agent 0.5, 1, 5, 10 mM with alloxan 15 mM, Calcusyn, >1.0 = antagonistic (cytoprotective); for cell survival rate of alloxan-damaged pancreatic β-cells, single agent: alloxan 15 mM, agent 0.5, 1, 5, 10 mM, pretreated 1 h, 24 h, significant vs AXN group at 5 mM (P<0.05) and 10 mM (P<0.01). How it is done: RINm5F cells were cultured to the logarithmic growth phase, inoculated in 96-well culture plates at a cell density of 5×10^4/ml, cultured for 24 hours, and then drugs were added. The experiment was divided into a negative control group, an alloxan damage group (AXN group) and a protection group. Both the AXN group and the protection group were added with alloxan at a final concentration of 15 mM, and the protection group was added with different concentrations of GX999 and GX008A, pretreated for 1h. The experiment set up 4 duplicate wells and the experiment was repeated three times.
RINm5F cells were cultured to the logarithmic growth phase, inoculated in 96-well culture plates at a cell density of 5×10^4/ml, cultured for 24 hours, and then drugs were added. The experiment was divided into a negative control group, an alloxan damage group (AXN group) and a protection group. Both the AXN group and the protection group were added with alloxan at a final concentration of 15 mM, and the protection group was added with different concentrations of GX999 and GX008A, pretreated for 1h. The experiment set up 4 duplicate wells and they were placed in a carbon dioxide incubator for regular culture for 24 hours. MTT 20 ul (5 mg/mL) was added to each well and incubated for 4 hours. Then the culture medium was discarded, 150 ul DMSO was added to each well and shaken for 10 minutes, and the OD value of the optical density was detected at 490 nm with a microplate reader.
According to the inhibition rates of different concentrations of drugs alone and in combination, the Calcusyn software was used to analyze and process data such as the inhibition rates of GX999 and GX008A alone at different concentrations and the inhibition rates in combination at corresponding concentrations to obtain the combination index (CI) value. According to the definition of combination index, the synergistic effect of drugs was judged, and the synergistic effect is indicated by less than 1.0, and the antagonistic effect is indicated by greater than 1.0.
The experiment set up a negative control group and a damage group with different concentrations of alloxan (concentrations of 4 mM, 7 mM, 10 mM, 15 mM, 20 mM), after 24 hours of exposure, then 4 duplicate wells were set up, and the MTT method was used to detect the cell survival rate. […] Compared with the blank control group, the P value was less than 0.01, and the difference was statistically significant.

For another experiment, the system named is 3T3-L1 preadipocytes. In words: Induced differentiation of 3T3-L1 preadipocytes, Oil Red O staining of lipid droplets. Type of experiment: cell-based. As to conditions: 10 mM each, 8 days of induced differentiation, P<0.01. As for the experimental part: 2 days after the 3T3-L1 preadipocytes grew to complete confluence, the induction of differentiation began. That is, the DMEM complete medium was discarded, and replaced with DMEM complete medium containing 5 ug/ml insulin, 0.5 mM IBMX, 1 uM dexamethasone, and after 2 days, it was replaced with DMEM complete culture medium containing 5 ug/ml insulin and cultured for 2 days. Then DMEM complete culture medium was used to continue culturing for 2 days. From the first day of differentiation, the experimental group was given a culture medium containing 10 mM GX999 or 10 mM GX008A to intervene in the whole process of cell differentiation, and the control group was added with conventional inducers.
After 8 days of induced differentiation, the cells were fixed with 4% paraformaldehyde for 30 minutes, washed 3 times with balanced salt solution (PBS), incubated with oil red O staining solution for 60 minutes, the pipetted liquid was rinsed 3 times with PBS, and observed for the formation of lipid droplets under an inverted microscope and a video was taken. Isopropanol (200 ul per well) was added, and the absorbance at A490 nm was measured with a microplate reader after 5 minutes.
Based on the results of the above-mentioned combination application experiment, the drug concentration and combination concentration were selected. […]

In a further experiment the test system is 3T3L1 preadipocytes. Kind of experiment: MTT cell viability assay, proliferation of 3T3L1 preadipocytes (with Calcusyn combination index). Type of experiment: cell-based. As to conditions: 48 hours; for survival rate of 3T3L1 cells / cell proliferation, single agent: GX999 10-60 mM, GX008A 5-200 mM, P<0.01 vs blank control. How it is done:
3T3L1 cells were placed in DMEM high-glucose medium containing 10% calf serum and cultured at 37° C. and 5% CO2. When the cells reached 90% confluence, they were digested with 0.25% trypsin, passaged, and inoculated in a 96-well cell culture plate.
The logarithmic growth phase cells were taken and inoculated in a 96-well plate at a density of 5×10^3 cells/mL, with 4 replicate wells in each group. After the cells grew to about 40%-50% confluence, the fresh drug-containing medium was replaced with and they were divided into a GX999 alone group, a GX008A group, and a GX999+GX008A combination group. After culturing for 48h, MTT 20 ul (5 mg/mL) was added to each well and incubated for 4h. Then the culture medium was discarded, 150 ul DMSO was added to each well and shaken for 10 minutes, and the OD value of the optical density was detected at 490 nm with a microplate reader, and the cell survival rate was calculated according to the formula. Analysis of drug synergy:
Combination method: 10 mM GX999 in combination with GX008A (0, 5, 10, 30, 50 mM) group. According to the inhibition rates of different concentrations of drugs alone and in combination, the Calcusyn software was used to analyze and process data such as the inhibition rates of GX999 and GX008A alone at different concentrations and the inhibition rates in combination at corresponding concentrations to obtain the combination index (CI) value. According to the definition of combination index, the synergistic effect of drugs was judged, and the synergistic effect is indicated by less than 1.0, and the antagonistic effect is indicated by greater than 1.0.

On to `O=C1NC(=O)C(=O)C(=O)N1` [alloxan, reference compound], for which the “cell survival rate / cell proliferation (alloxan cell damage model)” value in experiment [1] (alloxan 4, 7, 10, 15, 20 mM, 24 hours, RINm5f cells, MTT) is recorded as “inhibited cell proliferation in a concentration-dependent manner”.
As to `C[C@H](CC[C@@H](O[C@@H]1O[C@H](CO[C@@H]2O[C@H](CO)[C@@H](O)[C@H](O)[C@H]2O)[C@@H](O)[C@H](O)[C@H]1O[C@@H]1O[C@H](CO)[C@@H](O)[C@H](O)[C@H]1O)C(C)(C)O)[C@H]1CC[C@@]2(C)[C@@H]3CC=C4[C@@H](CC[C@H](O[C@@H]5O[C@H](CO[C@@H]6O[C@H](CO)[C@@H](O)[C@H](O)[C@H]6O)[C@@H](O)[C@H](O)[C@H]5O)C4(C)C)[C@]3(C)[C@H](O)C[C@]12C` [GX008A, Mogroside V], in experiment [1], the “combination index CI value with alloxan” value is recorded as “greater than 1.0” and the “cell survival rate of alloxan-damaged pancreatic β-cells, single agent” value is “the cell survival rate could be significantly improved”. In the experiment with 3T3-L1 preadipocytes, the “lipid droplet content in cells compared with the differentiation group” value is given as “significantly reduced”. Moreover, the “survival rate of 3T3L1 cells / cell proliferation, single agent” value in the experiment with 3T3L1 preadipocytes is “inhibited cell proliferation in a concentration-dependent manner”.
Broadly, the IC50 is the concentration that gives 50% inhibition. For the compound `NC(=O)c1ccc[n+]([C@@H]2O[C@H](COP(=O)([O-])O)[C@@H](O)[C@H]2O)c1` [GX999, Nicotinamide mononucleotide], in experiment [1], the “combination index CI value with alloxan” value is listed as “greater than 1.0” and the “cell survival rate of alloxan-damaged pancreatic β-cells, single agent” value is “the cell survival rate could be significantly improved”. The “lipid droplet content in cells compared with the differentiation group” value with 3T3-L1 preadipocytes is “significantly reduced”. Also, the half-inhibitory concentration (IC50) in the experiment with 3T3L1 preadipocytes (3T3L1 cells, MTT, read-out: IC50 (3T3L1 cell survival rate)) is 51.7 ± 1.5 mM. Besides, in the experiment with 3T3L1 preadipocytes, the “survival rate of 3T3L1 cells / cell proliferation, single agent” value is recorded as “inhibited cell proliferation in a concentration-dependent manner”.
